From patent EP4813991A1 (iLeadBMS Co., Ltd., priority 2023, dated 2025)
Like-named read-outs stand apart in the source and are kept apart here.

Tests used:
CDK1 = CDK1 (Homo sapiens, UniProt P06493); experiment: CDK1 kinase inhibitory activity assay and selectivity over CDK12; assay type: biochemical; conditions: for IC50: kinase reaction 120 minutes, 33P-gamma-ATP; for CDK1/CDK12: ratio of CDK1 IC50 to CDK12 IC50
Procedure: (§1) Before initiating the CDK1 and CDK2 kinase reactions, each Example compound was dissolved and diluted in DMSO as a solvent across 9 concentration ranges at room temperature. The diluted solutions were then incubated with a mixture of kinase and substrate (and cofactors, if required) for 20 minutes. Next, radioisotope-labeled ATP (^33P-gamma-ATP) was added to proceed with the kinase reaction at room temperature for 120 minutes. After the reaction was completed, the reaction mixture was transferred to a filter paper that binds the radioisotope-labeled catalytic product (^33P-substrate). Unreacted ^33P-ATP was removed by washing with 0.75 % phosphoric acid, and then the radioactive phosphorylated substrate remaining on the filter paper was measured. Kinase activity data were expressed as a percentage of the kinase activity remaining in the test sample compared to a DMSO control group. The half-maximal inhibitory concentration (IC50) for each kinase was calculated using Prism software.
(§2) The CDK1 and CDK2 kinase inhibitory activities of the Example compounds measured by the above method were evaluated according to the following criteria, and the results are presented in Table 14.

CDK12 [1] = target: T1, CDK12 (Homo sapiens, UniProt Q9NYV4); experiment: CDK12 kinase inhibitory activity assay (33P-ATP filter binding); assay type: biochemical
How it was run: (§3)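 Radiometric filter-binding read-out: after 20 min compound–enzyme/substrate pre-incubation across 9 concentrations, reaction started with ^33P-γ-ATP and run 120 min at room temperature. Filter-bound ^33P-substrate measured after 0.75 % phosphoric acid washes; remaining activity versus DMSO gives IC50.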

[2] = tested on: MDA-MB-231 breast cancer cells; experiment: Proliferation inhibitory activity assay against MDA-MB-231 breast cancer cells; assay type: cell-based; conditions: Homo sapiens, 72 hours, CellTiter Glo, relative IC50
How it was run: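 Cells grown in L-15 with 10% FBS at 37 °C, 0% CO2, then exposed next day to compounds at 9 concentrations (DMSO vehicle) for 72 h. Viability read by CellTiter Glo luminescence; relative IC50 from dose-response curve fit.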

CDK12 [3] = target: T1, CDK12; experiment: Cellular CDK12 inhibitory activity assay (Ser2 phosphorylation of RNA polymerase II subunit B1 CTD in MDA-MB-231 cells); assay type: cell-based; set-up: using MDA-MB-231 breast cancer cells; endogenous in cells; host or cells: MDA-MB-231; conditions: MDA-MB-231 cells, 6 hours treatment; read-out: pRpbl CTD S2 IC50
How it was run: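 MDA-MB-231 cells in L-15 with 10 % FBS were treated with compound at 9 concentrations for 6 h at 37 °C, 0 % CO2. In-Cell Western read phospho-Ser2 and total RNA polymerase II CTD on a Li-COR Odyssey; IC50 from 4-parameter dose-response fit.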

CDK2 = CDK2 (Homo sapiens, UniProt P24941); experiment: CDK2 kinase inhibitory activity assay and selectivity over CDK12; assay type: biochemical; conditions: for IC50: kinase reaction 120 minutes, 33P-gamma-ATP; for CDK2/CDK12: ratio of CDK2 IC50 to CDK12 IC50
Procedure: as §1, §2

CDK13 = CDK13 (Homo sapiens, UniProt Q14004); experiment: CDK13 kinase inhibitory activity assay (33P-ATP filter binding); assay type: biochemical
How it was run: as §3

[4] = kinase reaction 120 minutes, 33P-gamma-ATP, read-out: CDK12 IC50
[5] = kinase reaction 120 minutes, 33P-gamma-ATP, read-out: CDK13 IC50

CDK1, sequence (P06493 whole entry, species assumed): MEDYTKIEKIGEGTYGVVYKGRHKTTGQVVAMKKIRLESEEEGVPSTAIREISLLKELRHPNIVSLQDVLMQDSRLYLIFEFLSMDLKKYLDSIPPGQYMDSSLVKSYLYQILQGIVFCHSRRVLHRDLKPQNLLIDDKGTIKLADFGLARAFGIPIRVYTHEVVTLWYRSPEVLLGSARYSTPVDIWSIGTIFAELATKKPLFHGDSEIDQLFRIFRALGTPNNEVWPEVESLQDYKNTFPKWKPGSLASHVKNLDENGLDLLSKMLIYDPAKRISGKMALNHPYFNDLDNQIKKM
CDK1, sequence (P14635 whole entry partner, species assumed): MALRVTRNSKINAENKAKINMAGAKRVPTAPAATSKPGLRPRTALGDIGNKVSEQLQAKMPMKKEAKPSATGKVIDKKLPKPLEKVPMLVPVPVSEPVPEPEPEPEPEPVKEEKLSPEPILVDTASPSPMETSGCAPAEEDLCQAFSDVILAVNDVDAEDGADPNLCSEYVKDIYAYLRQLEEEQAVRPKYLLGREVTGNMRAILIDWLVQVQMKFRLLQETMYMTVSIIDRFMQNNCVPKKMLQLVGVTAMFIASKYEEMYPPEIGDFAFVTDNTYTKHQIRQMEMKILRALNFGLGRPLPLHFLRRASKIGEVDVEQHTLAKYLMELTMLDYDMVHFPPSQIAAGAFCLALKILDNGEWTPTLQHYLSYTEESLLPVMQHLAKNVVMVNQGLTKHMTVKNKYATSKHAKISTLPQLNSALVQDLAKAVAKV
CDK13, sequence (Q14004 whole entry, species assumed): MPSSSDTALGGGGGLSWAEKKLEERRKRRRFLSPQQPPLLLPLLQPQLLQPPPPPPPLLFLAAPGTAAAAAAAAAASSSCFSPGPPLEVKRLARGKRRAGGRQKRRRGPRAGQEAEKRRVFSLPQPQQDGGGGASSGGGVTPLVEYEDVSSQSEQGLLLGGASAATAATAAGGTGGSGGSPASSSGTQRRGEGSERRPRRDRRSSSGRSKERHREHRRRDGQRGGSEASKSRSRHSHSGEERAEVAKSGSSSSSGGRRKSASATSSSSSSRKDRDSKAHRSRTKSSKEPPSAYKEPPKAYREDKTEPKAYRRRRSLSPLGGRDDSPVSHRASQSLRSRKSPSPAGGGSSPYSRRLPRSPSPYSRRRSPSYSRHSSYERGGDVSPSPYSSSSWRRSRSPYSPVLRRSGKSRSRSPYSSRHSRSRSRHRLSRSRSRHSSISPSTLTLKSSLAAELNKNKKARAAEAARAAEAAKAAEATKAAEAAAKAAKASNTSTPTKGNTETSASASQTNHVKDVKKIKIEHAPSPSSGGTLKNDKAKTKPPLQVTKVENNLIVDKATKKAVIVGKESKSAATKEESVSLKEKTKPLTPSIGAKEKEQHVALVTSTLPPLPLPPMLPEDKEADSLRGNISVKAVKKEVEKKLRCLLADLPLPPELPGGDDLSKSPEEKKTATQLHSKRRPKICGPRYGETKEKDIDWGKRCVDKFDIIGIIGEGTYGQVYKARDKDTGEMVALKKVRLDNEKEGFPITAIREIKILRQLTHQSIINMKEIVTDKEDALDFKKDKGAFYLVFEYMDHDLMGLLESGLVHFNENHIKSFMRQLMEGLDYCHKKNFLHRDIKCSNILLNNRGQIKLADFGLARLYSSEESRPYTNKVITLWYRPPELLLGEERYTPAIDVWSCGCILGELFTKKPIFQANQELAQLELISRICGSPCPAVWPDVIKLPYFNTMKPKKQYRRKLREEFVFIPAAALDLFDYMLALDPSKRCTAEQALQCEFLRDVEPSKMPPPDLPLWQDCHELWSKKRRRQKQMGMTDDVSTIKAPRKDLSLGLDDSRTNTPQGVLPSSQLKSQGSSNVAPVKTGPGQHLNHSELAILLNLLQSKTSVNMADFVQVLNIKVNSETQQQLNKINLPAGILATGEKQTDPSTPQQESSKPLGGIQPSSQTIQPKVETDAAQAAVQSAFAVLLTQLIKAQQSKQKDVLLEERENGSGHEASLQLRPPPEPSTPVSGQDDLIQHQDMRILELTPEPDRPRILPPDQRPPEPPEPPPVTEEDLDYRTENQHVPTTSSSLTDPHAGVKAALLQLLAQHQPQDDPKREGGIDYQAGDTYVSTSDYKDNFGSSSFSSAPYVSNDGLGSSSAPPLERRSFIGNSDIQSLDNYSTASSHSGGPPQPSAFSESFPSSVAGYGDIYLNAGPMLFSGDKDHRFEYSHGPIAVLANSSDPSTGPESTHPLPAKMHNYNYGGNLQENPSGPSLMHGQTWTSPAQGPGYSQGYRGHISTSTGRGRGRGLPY
CDK13, sequence (O75909 whole entry partner, species assumed): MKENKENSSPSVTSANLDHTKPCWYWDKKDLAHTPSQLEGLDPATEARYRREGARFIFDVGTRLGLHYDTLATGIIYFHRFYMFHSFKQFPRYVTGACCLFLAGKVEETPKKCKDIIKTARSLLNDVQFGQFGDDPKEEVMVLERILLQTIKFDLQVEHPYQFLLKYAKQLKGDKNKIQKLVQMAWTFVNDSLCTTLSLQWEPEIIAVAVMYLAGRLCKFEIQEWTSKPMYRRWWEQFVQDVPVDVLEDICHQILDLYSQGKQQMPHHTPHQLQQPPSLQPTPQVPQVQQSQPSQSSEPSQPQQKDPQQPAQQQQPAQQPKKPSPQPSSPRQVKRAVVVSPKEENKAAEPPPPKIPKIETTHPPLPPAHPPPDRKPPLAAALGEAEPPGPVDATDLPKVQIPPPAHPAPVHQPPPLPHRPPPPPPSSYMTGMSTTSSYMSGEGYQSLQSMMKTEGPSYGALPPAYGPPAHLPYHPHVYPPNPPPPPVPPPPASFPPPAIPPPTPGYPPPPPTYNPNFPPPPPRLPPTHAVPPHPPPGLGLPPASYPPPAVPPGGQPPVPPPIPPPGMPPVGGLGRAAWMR
T1 sequence (Q9NYV4 whole entry, species assumed): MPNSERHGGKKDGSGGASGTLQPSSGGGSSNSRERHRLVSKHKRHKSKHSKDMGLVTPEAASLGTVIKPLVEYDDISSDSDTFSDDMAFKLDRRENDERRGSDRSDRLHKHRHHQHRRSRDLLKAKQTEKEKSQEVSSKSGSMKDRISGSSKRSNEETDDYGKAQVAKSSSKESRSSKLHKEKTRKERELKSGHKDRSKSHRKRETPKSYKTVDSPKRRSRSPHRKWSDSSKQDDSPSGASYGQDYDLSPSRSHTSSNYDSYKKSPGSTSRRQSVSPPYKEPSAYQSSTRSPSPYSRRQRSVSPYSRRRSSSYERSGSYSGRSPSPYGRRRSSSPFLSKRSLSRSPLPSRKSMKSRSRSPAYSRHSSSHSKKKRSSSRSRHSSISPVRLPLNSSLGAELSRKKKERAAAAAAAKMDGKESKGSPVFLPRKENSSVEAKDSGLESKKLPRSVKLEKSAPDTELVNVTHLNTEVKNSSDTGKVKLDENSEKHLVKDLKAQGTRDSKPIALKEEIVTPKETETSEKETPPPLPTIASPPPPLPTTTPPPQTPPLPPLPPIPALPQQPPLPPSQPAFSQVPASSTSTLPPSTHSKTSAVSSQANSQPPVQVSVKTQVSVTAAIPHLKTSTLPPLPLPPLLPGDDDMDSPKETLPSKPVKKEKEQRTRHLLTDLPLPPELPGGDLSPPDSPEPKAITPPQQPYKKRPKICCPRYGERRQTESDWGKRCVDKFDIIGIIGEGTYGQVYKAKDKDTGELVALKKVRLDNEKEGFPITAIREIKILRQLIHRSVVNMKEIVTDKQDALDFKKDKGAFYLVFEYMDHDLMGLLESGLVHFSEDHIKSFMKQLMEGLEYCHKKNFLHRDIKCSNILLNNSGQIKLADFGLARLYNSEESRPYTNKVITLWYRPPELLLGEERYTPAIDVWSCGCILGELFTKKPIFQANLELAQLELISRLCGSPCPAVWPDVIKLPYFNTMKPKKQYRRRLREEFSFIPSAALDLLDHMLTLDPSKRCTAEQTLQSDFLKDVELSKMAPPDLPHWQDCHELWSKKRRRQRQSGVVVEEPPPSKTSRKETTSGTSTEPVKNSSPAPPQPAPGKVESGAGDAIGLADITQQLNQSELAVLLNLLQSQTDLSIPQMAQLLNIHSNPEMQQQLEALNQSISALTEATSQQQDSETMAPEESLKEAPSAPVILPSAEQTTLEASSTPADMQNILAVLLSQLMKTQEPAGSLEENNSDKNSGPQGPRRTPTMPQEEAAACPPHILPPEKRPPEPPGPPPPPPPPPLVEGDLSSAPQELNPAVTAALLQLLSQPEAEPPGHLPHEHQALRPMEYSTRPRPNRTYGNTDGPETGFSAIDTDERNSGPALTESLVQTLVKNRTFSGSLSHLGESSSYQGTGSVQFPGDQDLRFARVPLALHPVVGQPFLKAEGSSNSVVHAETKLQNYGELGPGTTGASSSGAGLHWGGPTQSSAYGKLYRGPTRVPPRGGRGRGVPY
T1 sequence (O75909 whole entry partner, species assumed): as the sequence (O75909 whole entry partner, species assumed) above

IC50 (CDK1) [µM]	CDK1/CDK12 (CDK1)	IC50 (CDK12 [1]; [4]) [µM]	IC50 [2] [µM]	IC50 (CDK12 [3]) [µM]	IC50 (CDK2) [µM]	IC50 (CDK13; [5]) [µM]	SMILES	CDK2/CDK12 (CDK2)	IC50 (CDK13) [µM]	IC50 (CDK12 [1]) [µM]
> 1	A (CDK1/CDK12 or CDK2/CDK12 > 500-fold)	< 0.1	≤ 0.05	0.3 to 3	> 1	< 0.1	COc1cccc2[nH]c(CNc3cc(N4CCOCC4)nn4c(C(F)(F)F)cnc34)nc12 [Example 73, N-((4-methoxy-1H-benzo[d]imidazol-2-yl)methyl)-6-morpholino-3-(trifluoromethyl)imidazo[1,2-b]pyridazin-8-amine]	A (CDK1/CDK12 or CDK2/CDK12 > 500-fold)		
> 1		0.1 to 0.5	≤ 0.05	< 0.3	> 1	0.1 to 0.5	N#CC1CCN(c2cc(NCc3nc4cc(Cl)c(Cl)cc4[nH]3)c3ncc(C(F)(F)F)n3n2)CC1 [Example 44, 1-(8-(((5,6-dichloro-1H-benzo[d]imidazol-2-yl)methyl)amino)-3-(trifluoromethyl)imidazo[1,2-b]pyridazin-6-yl)piperidine-4-carbonitrile]			
> 1	A (CDK1/CDK12 or CDK2/CDK12 > 500-fold)	< 0.1	≤ 0.05	< 0.3	> 1	< 0.1	Fc1cccc2[nH]c(CNc3cc(N4CCOCC4)nn4c(C(F)(F)F)cnc34)nc12 [Example 76, N-((4-fluoro-1H-benzo[d]imidazol-2-yl)methyl)-6-morpholino-3-(trifluoromethyl)imidazo[1,2-b]pyridazin-8-amine]	A (CDK1/CDK12 or CDK2/CDK12 > 500-fold)		
> 1	A (CDK1/CDK12 or CDK2/CDK12 > 500-fold)	< 0.1	0.05 to 0.5	< 0.3	> 1	< 0.1	Cc1ccnc2[nH]c(CNc3cc(N4CCOCC4)nn4c(C(F)(F)F)cnc34)nc12 [Example 75, N-((7-methyl-3H-imidazo[4,5-b]pyridin-2-yl)methyl)-6-morpholino-3-(trifluoromethyl)imidazo[1,2-b]pyridazin-8-amine]	A (CDK1/CDK12 or CDK2/CDK12 > 500-fold)		
> 1	A (CDK1/CDK12 or CDK2/CDK12 > 500-fold)	< 0.1	≤ 0.05	< 0.3	> 1	< 0.1	Fc1ccc2[nH]c(CNc3cc(N4CCOCC4)nn4c(C(F)(F)F)cnc34)nc2c1 [Example 77, N-((5-fluoro-1H-benzo[d]imidazol-2-yl)methyl)-6-morpholino-3-(trifluoromethyl)imidazo[1,2-b]pyridazin-8-amine]	B (100-fold < CDK1/CDK12 or CDK2/CDK12 ≤ 500-fold)		

Further lines, the compound ahead of its results:

SMILES	IC50 (CDK1) [µM]	CDK1/CDK12 (CDK1)	IC50 (CDK12 [1]; [4]) [µM]	IC50 [2] [µM]	IC50 (CDK12 [3]) [µM]	IC50 (CDK2) [µM]	IC50 (CDK13; [5]) [µM]	CDK2/CDK12 (CDK2)	IC50 (CDK13) [µM]	IC50 (CDK12 [1]) [µM]
FC(F)(F)c1cnc2c(NCc3nc4ccccc4[nH]3)cc(N3CCOCC3)nn12 [Example 69, N-((1H-benzo[d]imidazol-2-yl)methyl)-6-morpholino-3-(trifluoromethyl)imidazo[1,2-b]pyridazin-8-amine]	> 1	B (100-fold < CDK1/CDK12 or CDK2/CDK12 ≤ 500-fold)	< 0.1	0.05 to 0.5	0.3 to 3	> 1	< 0.1	B (100-fold < CDK1/CDK12 or CDK2/CDK12 ≤ 500-fold)		
Fc1ccc2nc(CNc3cc(N4C5CCC4COC5)nn4c(C(F)(F)F)cnc34)[nH]c2c1F [Example 7, 6-(3-oxa-8-azabicyclo[3.2.1]octan-8-yl)-N-((6,7-difluoro-1H-benzo[d]imidazol-2-yl)methyl)-3-(trifluoromethyl)imidazo[1,2-b]pyridazin-8-amine]	> 1	C (CDK1/CDK12 or CDK2/CDK12 ≤ 100-fold)	0.1 to 0.5	≤ 0.05	< 0.3	> 1		C (CDK1/CDK12 or CDK2/CDK12 ≤ 100-fold)	< 0.1	
OC1CN(c2cc(NCc3nc4ccc(F)c(F)c4[nH]3)c3ncc(C(F)(F)F)n3n2)C1 [Example 16, 1-(8-(((6,7-difluoro-1H-benzo[d]imidazol-2-yl)methyl)amino)-3-(trifluoromethyl)imidazo[1,2-b]pyridazin-6-yl)azetidin-3-ol]	> 1	B (100-fold < CDK1/CDK12 or CDK2/CDK12 ≤ 500-fold)	< 0.1	≤ 0.05	0.3 to 3	> 1	< 0.1	C (CDK1/CDK12 or CDK2/CDK12 ≤ 100-fold)		
COc1cc2nc(CNc3cc(N4CCOCC4)nn4c(C(F)(F)F)cnc34)[nH]c2cc1Cl [Example 71, N-((6-chloro-5-methoxy-1H-benzo[d]imidazol-2-yl)methyl)-6-morpholino-3-(trifluoromethyl)imidazo[1,2-b]pyridazin-8-amine]	> 1	B (100-fold < CDK1/CDK12 or CDK2/CDK12 ≤ 500-fold)	< 0.1	≤ 0.05	< 0.3	> 1	< 0.1	B (100-fold < CDK1/CDK12 or CDK2/CDK12 ≤ 500-fold)		
Nc1ncc(-c2cc(NCc3nc4ccc(F)c(F)c4[nH]3)c3ncc(C(F)(F)F)n3n2)cn1 [Example 35]	> 1	A (CDK1/CDK12 or CDK2/CDK12 > 500-fold)	< 0.1	≤ 0.05	< 0.3	> 1	< 0.1	B (100-fold < CDK1/CDK12 or CDK2/CDK12 ≤ 500-fold)		
Fc1ccc2nc(CNc3cc(N4CCOCC4)nn4c(C5CC5)cnc34)[nH]c2c1F [Example 23, 3-cyclopropyl-N-((6,7-difluoro-lH-benzo[d]imidazol-2-yl)methyl)-6-morpholinoimidazo[1,2-b]pyridazin-8-amine]	> 1			0.05 to 0.5	0.3 to 3	> 1	< 0.1			0.1 to 0.5
Fc1ccc2nc(CNc3cc(N4CCNCC4)nn4c(C(F)(F)F)cnc34)[nH]c2c1F [Example 17]	> 1	A (CDK1/CDK12 or CDK2/CDK12 > 500-fold)	< 0.1	≤ 0.05	< 0.3	> 1	< 0.1	B (100-fold < CDK1/CDK12 or CDK2/CDK12 ≤ 500-fold)		
NC1CCN(c2cc(NCc3nc4ccc(F)c(F)c4[nH]3)c3ncc(C(F)(F)F)n3n2)CC1 [Example 18]	> 1	A (CDK1/CDK12 or CDK2/CDK12 > 500-fold)	< 0.1	≤ 0.05	< 0.3	> 1	< 0.1	A (CDK1/CDK12 or CDK2/CDK12 > 500-fold)		
O=C(CO)NC1CCN(c2cc(NCc3nc4cc(Cl)c(Cl)cc4[nH]3)c3ncc(C(F)(F)F)n3n2)CC1 [Example 115, N-(1-(8-(((5,6-dichloro-1H-benzo[d]imidazol-2-yl)methyl)amino)-3-(trifluoromethyl)imidazo[1,2-b]pyridazin-6-yl)piperidin-4-yl)-2-hydroxyacetamide]	> 1	B (100-fold < CDK1/CDK12 or CDK2/CDK12 ≤ 500-fold)	< 0.1	≤ 0.05	< 0.3	> 1		B (100-fold < CDK1/CDK12 or CDK2/CDK12 ≤ 500-fold)	< 0.1	
C#Cc1cnc2c(NCc3nc4ccc(F)c(F)c4[nH]3)cc(-c3cnc(N)nc3)nn12 [Example 22, 6-(2-aminopyrimidin-5-yl)-N-((6,7-difluoro-1H-benzo[d]imidazol-2-yl)methyl)-3-ethynylimidazo[1,2-b]pyridazin-8-amine]	> 1	A (CDK1/CDK12 or CDK2/CDK12 > 500-fold)	< 0.1	0.05 to 0.5	< 0.3	> 1		A (CDK1/CDK12 or CDK2/CDK12 > 500-fold)	< 0.1	
Fc1ccc2nc(CNc3cc(N4CC5CCC(C4)N5)nn4c(C(F)(F)F)cnc34)[nH]c2c1F [Example 10, 6-(3,8-diazabicyclo[3.2.1]octan-3-yl)-N-((6,7-difluoro-1H-benzo[d]imidazol-2-yl)methyl)-3-(trifluoromethyl)imidazo[1,2-b]pyridazin-8-amine]			< 0.1	≤ 0.05	< 0.3		< 0.1			
